# Tests used:
# Assay in all cases: Microbiological challenge testing in BPW broth, graded subculture counts
# Format in all cases: cell-based
# [1] = system: Aspergillus niger Wild type; conditions: A. niger
# Description: (§1) The microorganisms in the table below were used in challenge tests. They were either ATCC (American Type Culture Collection) or “wild type” as indicated. Wild type organisms were problematic organisms previously isolated from chemical products.
# (§2) All of the microorganisms were grown in Tryptose Soy Broth (TSB), DIFCO™ available from Becton, Dickinson and Company, containing 1% dextrose. Candida albicans and Aspergillus niger, were incubated at 22° C.+/−2° C. for at least 96 hours. All bacteria were incubated at 35° C.+/−2° C. in a humidified incubator for at least 96 hours.
# (§3) Candida albicans and Aspergillus niger were also grown on Sabouraud Dextrose Agar (SABD) at 22° C. for 7 to 14 days or until full sporulation was achieved.
# (§4) The following procedure was followed to determine the amount of each challenge material (inoculum broth) needed to produce a 10^8 CFU/mL challenge, which is equivalent to a final test-sample microbial concentration of 10^5 to 10^6 CFU/mL (CFU=colony forming units).
# (§5) Using a sterile pipette, 1 mL of the growth from each TSB culture was transferred into tubes of 9 mL buffered water (pH 7.2 phosphate buffer) and mixed thoroughly. This was repeated to make serial 1:10 dilutions. Then, 0.1 mL of each sample and dilution was inoculated onto agar plates to produce the equivalent of a further 1:10 dilution. (C. albicans and A. niger were inoculated onto SABD and bacteria were inoculated onto Plate Count Agar (PCA), DIFCO™ available from Becton, Dickinson and Company.) (The normal volume plated for most samples was 0.1 mL. Some samples that could be very low in micro-organisms (high dilutions) were plated using 0.5 mL of inoculum, in order to produce reproducible counts.) The samples were distributed on the plates using the spread-plate technique. The spread-plate technique is carried out by spreading the sample over the entire plate surface using a sterile spreading rod while rotating the plate with a rotary auto-plater. After the inoculum was absorbed completely by the agar, each plate was inverted and incubated (fungi at 22° C.+/−2° C. and bacteria at 35° C.+/−2° C.).
# (§6) After incubation for at least 48 hours, colonies that had developed on the agar plates were counted (CFU) and recorded with the corresponding dilution. If counting had to be delayed temporarily, plates were refrigerated, preferably no more than 24 hours, until they could be counted. The number of CFU/mL was determined by multiplying the plate count by the dilution factor of the plate counted.
# (§7) Turbidity in Nepholemetric Turbidity Units (NTU) was measured for each serial dilution using the HF-Micro 100 Model Turbidimeter. For each microorganism, the plate counts were compared to the turbidity readings.
# Aspergillus niger cultures were harvested and spores dislodged from the SABD on which they were grown by rubbing the growth gently with a sterile inoculating loop. The spores were then mixed into the broth culture that had been incubated with a sterile magnetic stir bar to reduce pellicle formation. The spore-culture mixture was filtered repeatedly through sterile, nonabsorbent cotton and harvested repeatedly, adjusting vegetative cells and spores to a level of 1.0×10^8. A hemocytometer was used to verify the final challenge concentration.
# (§8) Control substrates (“broth alone”) were prepared for each microorganism separately in triplicate by adding 13.5 mL of Buffered Peptone Water broth (BPW) containing 1% dextrose to each 20-mL glass tube, then adding 1.5 mL challenge material to produce a final concentration at time zero of 10^5 to 10^6 CFU/mL and a total volume of 15 mL.
# [2] = system: Candida albicans Wild type; conditions: C. albicans
# Description: as §1, §2, §3, §4, §5, §6, §7
# On the day of challenge, the Candida albicans inoculum broth was poured through nonabsorbent sterile gauze and centrifuged. The […] was then diluted with buffered water (pH 7.2 phosphate buffer) until the desired turbidity was reached. Using a hemocytometer, a determination was made whether the challenge contained the desired concentration. Dilutions were made through 1.0×10^8 and three SABD spread plates were inoculated with 0.1 mL of each dilution. The plates were incubated for at least 48 hours and challenge counts were confirmed.
# as §8
# [3] = system: Staphylococcus epidermidis ATCC 12228
# Summary of the method: (§9)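 Bacteria were grown in TSB with 1% dextrose at 35 °C ± 2 °C for at least 96 h, then added to BPW containing 1% dextrose plus test material to give 10^5 to 10^6 CFU/mL at time zero. Broth-alone controls were run in triplicate. Counts were made by spread plating on PCA.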
# [4] = system: Pseudomonas aeruginosa Wild type; conditions: P. aeruginosa
# Summary of the method: as §9
compound,measurement,setting,value
"OCC1CCCC(CO)C1 (stereo not drawn) [1,3-CHDM, 1,3-cyclohexanedimethanol]",Grade,"[1]; 0.5% (wt/vol), 3 day",5
same,Grade,"[1]; 0.5% (wt/vol), 13 day",5
same,Grade,"[1]; 0.5% (wt/vol), 30 day",5
same,Grade,"[1]; 1.25% (wt/vol), 3 day",5
same,Grade,"[1]; 1.25% (wt/vol), 13 day",4
same,Grade,"[1]; 1.25% (wt/vol), 30 day",4
same,Grade,"[1]; 2.5% (wt/vol), 3 day",4
same,Grade,"[1]; 2.5% (wt/vol), 13 day",4
same,Grade,"[1]; 2.5% (wt/vol), 30 day",4
same,Grade,"[1]; 5.0% (wt/vol), 3 day",2 (Countable (10 to 100 colonies))
same,Grade,"[1]; 5.0% (wt/vol), 13 day",2 (Countable (10 to 100 colonies))
same,Grade,"[1]; 5.0% (wt/vol), 30 day",4
same,Grade,"[2]; 0.5% (wt/vol), 3 day","4 (1000 to 10,000 colonies countable (thus 10,000 CFU/mL to 100,000 CFU/mL))"
same,Grade,"[2]; 0.5% (wt/vol), 14 day","4 (1000 to 10,000 colonies countable (thus 10,000 CFU/mL to 100,000 CFU/mL))"
same,Grade,"[2]; 0.5% (wt/vol), 30 day","4 (1000 to 10,000 colonies countable (thus 10,000 CFU/mL to 100,000 CFU/mL))"
same,Grade,"[2]; 1.25% (wt/vol), 3 day","4 (1000 to 10,000 colonies countable (thus 10,000 CFU/mL to 100,000 CFU/mL))"
same,Grade,"[2]; 1.25% (wt/vol), 14 day","4 (1000 to 10,000 colonies countable (thus 10,000 CFU/mL to 100,000 CFU/mL))"
same,Grade,"[2]; 1.25% (wt/vol), 30 day","4 (1000 to 10,000 colonies countable (thus 10,000 CFU/mL to 100,000 CFU/mL))"
same,Grade,"[2]; 2.5% (wt/vol), 3 day","4 (1000 to 10,000 colonies countable (thus 10,000 CFU/mL to 100,000 CFU/mL))"
same,Grade,"[2]; 2.5% (wt/vol), 14 day","4 (1000 to 10,000 colonies countable (thus 10,000 CFU/mL to 100,000 CFU/mL))"
same,Grade,"[2]; 2.5% (wt/vol), 30 day","4 (1000 to 10,000 colonies countable (thus 10,000 CFU/mL to 100,000 CFU/mL))"
same,Grade,"[2]; 5.0% (wt/vol), 3 day",0
same,Grade,"[2]; 5.0% (wt/vol), 14 day",2 (52 to 100 colonies counted (thus 520 to 1000 CFU/mL))
same,Grade,"[2]; 5.0% (wt/vol), 30 day","3 (100 to 1000 colonies (thus 1000 to 10,000 CFU/mL))"
same,"S. epidermidis growth grade, 3 day",[3]; 0.5% weight/volume,"4 (1000 to 10,000 colonies countable (thus 10,000 CFU/mL to 100,000 CFU/mL))"
same,"S. epidermidis growth grade, 13 day",[3]; 0.5% weight/volume,"4 (1000 to 10,000 colonies countable (thus 10,000 CFU/mL to 100,000 CFU/mL))"
same,"S. epidermidis growth grade, 30 day",[3]; 0.5% weight/volume,"4 (1000 to 10,000 colonies countable (thus 10,000 CFU/mL to 100,000 CFU/mL))"
same,"S. epidermidis growth grade, 3 day",[3]; 1.25% weight/volume,"4 (1000 to 10,000 colonies countable (thus 10,000 CFU/mL to 100,000 CFU/mL))"
same,"S. epidermidis growth grade, 13 day",[3]; 1.25% weight/volume,3.7
same,"S. epidermidis growth grade, 30 day",[3]; 1.25% weight/volume,"4 (1000 to 10,000 colonies countable (thus 10,000 CFU/mL to 100,000 CFU/mL))"
same,"S. epidermidis growth grade, 3 day",[3]; 2.5% weight/volume,"4 (1000 to 10,000 colonies countable (thus 10,000 CFU/mL to 100,000 CFU/mL))"
same,"S. epidermidis growth grade, 13 day",[3]; 2.5% weight/volume,"3 (100 to 1000 colonies (thus 1000 to 10,000 CFU/mL))"
same,"S. epidermidis growth grade, 30 day",[3]; 2.5% weight/volume,"4 (1000 to 10,000 colonies countable (thus 10,000 CFU/mL to 100,000 CFU/mL))"
same,"S. epidermidis growth grade, 3 day",[3]; 5.0% weight/volume,2 (52 to 100 colonies counted (thus 520 to 1000 CFU/mL))
same,"S. epidermidis growth grade, 13 day",[3]; 5.0% weight/volume,1 (0 to 51 colonies counted (thus 10 to 510 CFU/mL based on 0.1-mL sample))
same,"S. epidermidis growth grade, 30 day",[3]; 5.0% weight/volume,"3 (100 to 1000 colonies (thus 1000 to 10,000 CFU/mL))"
same,Grade,"[4]; 0.5% (wt/vol), 3 day","5 (More than 10,000 colonies estimated (thus more than 100,000 CFU/mL))"
same,Grade,"[4]; 0.5% (wt/vol), 13 day","5 (More than 10,000 colonies estimated (thus more than 100,000 CFU/mL))"
same,Grade,"[4]; 0.5% (wt/vol), 30 day","5 (More than 10,000 colonies estimated (thus more than 100,000 CFU/mL))"
same,Grade,"[4]; 1.25% (wt/vol), 3 day","4 (1000 to 10,000 colonies countable (thus 10,000 CFU/mL to 100,000 CFU/mL))"
same,Grade,"[4]; 1.25% (wt/vol), 13 day","4 (1000 to 10,000 colonies countable (thus 10,000 CFU/mL to 100,000 CFU/mL))"
same,Grade,"[4]; 1.25% (wt/vol), 30 day","4 (1000 to 10,000 colonies countable (thus 10,000 CFU/mL to 100,000 CFU/mL))"
same,Grade,"[4]; 2.5% (wt/vol), 3 day","4 (1000 to 10,000 colonies countable (thus 10,000 CFU/mL to 100,000 CFU/mL))"
same,Grade,"[4]; 2.5% (wt/vol), 13 day","4 (1000 to 10,000 colonies countable (thus 10,000 CFU/mL to 100,000 CFU/mL))"
same,Grade,"[4]; 2.5% (wt/vol), 30 day","4 (1000 to 10,000 colonies countable (thus 10,000 CFU/mL to 100,000 CFU/mL))"
same,Grade,"[4]; 5.0% (wt/vol), 3 day","4 (1000 to 10,000 colonies countable (thus 10,000 CFU/mL to 100,000 CFU/mL))"
same,Grade,"[4]; 5.0% (wt/vol), 13 day","4 (1000 to 10,000 colonies countable (thus 10,000 CFU/mL to 100,000 CFU/mL))"
same,Grade,"[4]; 5.0% (wt/vol), 30 day","4 (1000 to 10,000 colonies countable (thus 10,000 CFU/mL to 100,000 CFU/mL))"
